Patent US20260242440A1, “NOVEL MEANS TO MODULATE NMDA RECEPTOR-MEDIATED TOXICITY” (FUNDAMENTAL PHARMA GMBH, priority 2018, published 2026)
Entries after “also recorded” stand apart in the source; their conditions may differ.

Experiments:
[1] = tested on: primary mouse hippocampal neurons; assay: NMDA receptor induced mitochondrial membrane potential breakdown (Rh123 imaging); type: cell-based
Procedure: Coverslips with primary cultured neurons (DIV15-DIV17) were used to examine mitochondrial membrane potential (Ψm) and mitochondrial calcium signalling, which was performed at room temperature in CO2-independent culture medium (CICM) containing: 10 mM HEPES, 140 mM NaCl, 2.5 mM KCl, 1.0 mM MgCl2, 2.0 mM CaCl2, 1.0 mM Glycine, 35.6 mM Glucose and 0.5 mM Na-pyruvate. All images were obtained by a cooled-CCD camera (iXon 887, Andor) on an upright microscope (BX51WI, Olympus). Fluorescence excitation was provided by a xenon arc lamp in combination with an excitation filter wheel (MT-20, Olympus). Data were collected using Cell^R software (Olympus), analysed using ImageJ and quantified using Igor Pro (WaveMetrics). Ψm was detected with the small molecule fluorescence indicator Rhodamine 123 (Rh123; Molecular Probe™, R302). Primary cultured neurons were loaded with 4.3 μM Rh123 in CICM at 37° C. for 30 min, then washed and left in CICM for another 30 min before recording. At the end of each experiment, the mitochondrial uncoupler FCCP (5 μM, Sigma-Aldrich, Cat #C2920) was applied to the cells to reach the maximal Rh123 fluorescence intensity. Rh123 was imaged with 470±20 nm excitation and 525±25 nm emission wavelengths using a 20× objective. Rh123 fluorescence intensity was measured in the nucleus to minimize contamination from cytosolic mitochondrial signal and Rh123 fluorescence intensity was normalized to the maximum FCCP signal for each region of interest.
Mitochondrial dysfunction is a hallmark of NMDA receptor excitotoxicity and an early event en-route to neuronal death. A parameter that is often used to assess mitochondrial integrity is the mitochondrial membrane potential. A breakdown of the mitochondrial membrane potential can be observed after exposure of hippocampal or cortical neurons to NMDA and indicates excitotoxicity-associated mitochondrial dysfunction. Therefore, the inventors investigated the effect of polypeptides comprising the sequence of SEQ ID NO:5 or SEQ ID NO: 54 as well as of the control TRMP5 sequence (SEQ ID NO: 55) on mitochondrial membrane potential break down in primary mouse hippocampal neurons. Excitotoxicity leading to mitochondrial membrane potential break down was induced with bath application of 20 μM NMDA. After 11 minutes, the mitochondrial uncoupler, carbonylcyanide-p-trifluoromethoxyphenylhydrazone (FCCP) was added. Addition of FCCP leads to break-down of the mitochondrial membrane potential and served as a control of the test system.

[2] = tested on: middle cerebral artery occlusion (MCAO) mouse stroke model; assay: middle cerebral artery occlusion (MCAO) mouse stroke model, infarct volume; type: in vivo; settings: rAAV delivered stereotactically to mouse cortex 3 weeks before MCAO; quantified 7 days post-injury; vs PBS control
Text: Given the robust protective effect of SEQ ID NO:5 in cultured neurons, the inventors next analysed its neuroprotective potential in vivo using the middle cerebral artery occlusion (MCAO) mouse stroke model.
Stereotactic intracerebral injection to the cortex of mice: C57BL/6N male mice (8 weeks±5 days old) weighing 25±1 g were randomly grouped and anaesthetized with a mixture of Sedin©, Midazolam and Fentanyl®-Janssen and placed on a rodent stereotactic frame on a heat pad temperature controlled by a ATC1000 DC rectal thermometer (World Precision Instruments, Berlin). rAAV-SEQ ID NO:5) was infused into the left cortex (coordinates relative to Bregma: first site: AP 0.2 mm; ML 2.0; DV −2.0; second site: AP 0.2; ML 2.0; DV −1.8; third site: AP 0.2; ML 3.0; DV −4.0; forth site: AP 0.2; ML 3.0; DV −3.5.) using a Ultra Micro Pump III (World Precision Instruments, Berlin) to drive a 10 μl Nanofil syringe (World Precision Instruments, Berlin). […]
MCAO: Middle cerebral artery occlusion (MCAO) induced a permanent distal occlusion of the middle cerebral artery (MCA). […] The silver stained sections were scanned at 1200 dpi and infarct area was measured by using ImageJ software (NIH Image). Surgery was performed and ischemic damage was measured by an investigator who had no knowledge of the treatment group, rAAV or recombinant protein was applied by stereotactic injection or intranasal delivery.

Row | Molecule | protection of mitochondrial membrane potential from NMDA excitotoxicity ([1]; compound applied 30 min prior to recording, bath application of NMDA) | infarct volume [2] | NMDA receptor induced mitochondrial membrane potential breakdown ([1]; polypeptides expressed via rAAV, bath application of 20 μM NMDA)
1 | CCN(CCN)Cc1cccc(Br)c1 [P4] | significantly protect mitochondrial membrane potential from NMDA excitotoxicity | – | –
2 | SEQ ID NO:5: polypeptide, amino acid residues 633-689 of mouse TRPM4 (NSEERAARLLLRRCPLWGEATCLQLAMQADARAFFAQDGVQSLLTQKWWGEMDSTTP; listed as Mus musculus) | – | significantly smaller; also recorded: effectively reduced the infarct volumes | capable of preventing NMDA receptor induced mitochondrial membrane potential breakdown
